Measurements published in PubChem BioAssay AID2202554 (NIEHS Division of Translational Toxicology (DTT)).
Records with an inconclusive call do not appear. The source made the active and inactive calls. How the calls were made is not given here.

Each molecule was assayed on S. typhimurium/E. coli reverse mutation, colony counts (assay: Bacterial reverse mutation test (aka Ames test) summary data;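 further: His-minus Salmonella and trp-minus E. coli WP2 uvrA pKM101 with or without liver S9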).
Description: The Ames test uses bacteria cultures to determine whether a substance causes mutations. Because there is a significant overlap between substances that are mutagens and those that are carcinogens, a quick and inexpensive mutagenicity test is useful as an initial screening for possible carcinogens.
The Ames test relies on specific strains of S. typhimurium, namely: TA97, TA98, TA100, TA102, TA104, TA1535, TA1537, and TA1538. In addition to the S. typhimurium strains, the test may also use the E. coli strain WP2 uvrA pKM101.
Each of the bacterial strains has a mutation that prevents it from making an amino acid (a protein building block) required for normal cell growth. The S. typhimurium strains are unable to manufacture histidine; the E. coli strain cannot manufacture tryptophan. The tester strains will not be able to grow without amino acid supplementation, unless the mutated gene is changed back to the correct DNA sequence (reversion mutation). Being exposed to a mutagenic chemical increases the chance that the mutant gene will be restored to the correct sequence, which allows the bacteria to grow and form colonies. Each substance under study is tested in a variety of bacterial strains with different types of altered DNA sequences in order to provide a comprehensive assessment of the mutagenic potential of the substance.
Some non-mutagenic substances are converted to mutagenic substances when metabolized by the liver; in contrast, some substances that are mutagenic in their natural state are converted to non-mutagens by the liver. All substances are tested in their natural state, as well as in the presence of liver enzymes that can produce this metabolic conversion of the test substance. Extracts of rat, hamster, or mouse liver enzymes (S9 mix) are used for this purpose.
D. Preparing the Cultures
Multiple sets of cultures are prepared using a range of doses and different amounts of liver enzymes for each bacterial strain. Each culture is prepared in a test tube containing a suspension of one bacterial strain and either an S9 mix or plain buffer solution. Then the test substance is added. Negative control cultures are established using the same ingredients, but without the test substance. Positive control cultures are established using known mutagens active in particular bacterial strains and metabolic conditions (for example, with or without S9). Once prepared, each culture is incubated for 20 minutes at 37° C. Agar is then added to the cultures, and the contents of each tube are poured onto the surface of a Petri dish that was prepared with standard bacterial culture medium. The plates are then incubated, usually for two days.
Depending on the substance to be tested, the exposure and incubation processes may be modified. These variations include:
- Elimination of the 20-minute incubation period in a test tube prior to plating (this method is referred to as the standard plate incorporation method)
- Enzymatic reduction of azo and diazo substances (this process occurs in the intestine or liver of animals) using a chemical called flavin mononucleotide (FMN) or intestinal bacterial preparations from rats
- Testing in sealed chambers such as desiccators for volatile and gaseous chemicals.
To validate the test, a trained investigator compares the number of colonies on the chemical-treated plates to the number of colonies on the negative control plates. If the substance under test is mutagenic, the chemical-treated plates will have a much greater number of colonies than the negative control plates.
- A positive response is a reproducible, dose-related increase in mutant colonies in any single strain, with or without the addition of S9 metabolic enzymes. While there is no minimum percentage of increase required for a result to be considered positive, a twofold increase in mutant colonies in a treated plate is usually considered to be a positive (mutagenic) response.
[…]

SMILES	outcome
Cc1ccc(S(=O)(=O)Oc2ccc(N=Nc3ccc(-c4ccc(N=Nc5c(O)ccc6cc(S(=O)(=O)O)cc(S(=O)(=O)O)c56)c(C)c4)cc3C)cc2)cc1	active; positive
N[C@@H](Cc1c[nH]c2ccccc12)C(=O)O	inactive; negative
COc1ccc(C(=O)c2ccccc2)c(O)c1	active; weakly positive
COc1ccc(N)c(OC)c1	active; positive
C=C1CC/C=C(\C)CC[C@@H]2[C@@H]1CC2(C)C	inactive; negative
Clc1cccc(Cl)c1	inactive; negative
CCCCC(CC)COC(=O)C(C#N)=C(c1ccccc1)c1ccccc1 (stereo unspecified)	inactive; negative
COc1ccc(OC)c(N=Nc2c(O)ccc3ccccc23)c1	active; positive
CCCCCNCCCCC	inactive; negative
NC(=O)c1cccc([N+](=O)[O-])c1	active; positive
ClC(Cl)=C(Cl)C(Cl)=C(Cl)Cl	inactive; negative
CN(C)CCN(Cc1ccccc1)c1ccccc1	inactive; negative
Cc1ccnc2c1NC(=O)c1cccnc1N2C1CC1	inactive; negative
Clc1ccc(Cl)cc1	inactive; negative
COc1ccc([N+](=O)[O-])cc1N	active; positive
O=C1[O][Bi][O]c2ccccc21	inactive; negative
CCCCCCN	inactive; negative
[CH3][Sn]([Cl])([Cl])[Cl]	inactive; negative
Oc1cc(Cl)ccc1Cl	inactive; negative
CC(CO)[N+](=O)[O-] (stereo unspecified)	inactive; negative
O=C(O)c1ccc(Cl)c(Cl)c1	inactive; negative
O=S(=O)(O)c1cc(N=Nc2c(O)ccc3ccccc23)ccc1-c1ccc(N=Nc2c(O)ccc3ccccc23)cc1S(=O)(=O)O	inactive; negative

SMILES	outcome
Cc1ccc(O)c(C)c1	active; weakly positive
[O-][n+]1ccccc1SSc1cccc[n+]1[O-]	inactive; negative
OC[P+](CO)(CO)CO	inactive; negative
O=C1NS(=O)(=O)c2ccccc21	inactive; negative
Cc1cccc(O)c1C	inactive; negative
N=C1N=C(N)c2ccccc21	active; positive
CCCN(CCC)C(=O)SCC	inactive; negative
Cc1ccc([N+](=O)[O-])c(C)c1	active; positive
O=C(O)C=Cc1ccc(C=CC(=O)O)cc1	inactive; negative
CCOP(=S)(OCC)Oc1nc(Cl)c(Cl)cc1Cl	inactive; negative
CN1C(CSCC(F)(F)F)Nc2cc(Cl)c(S(N)(=O)=O)cc2S1(=O)=O (stereo unspecified)	inactive; negative
CC/C=C\C/C=C\C/C=C\CCCCCCCC(=O)O	active; weakly positive
Cc1cnc[nH]1	inactive; negative
CC[C@H]1CN2CCc3cc(OC)c(OC)cc3[C@@H]2C[C@@H]1C[C@H]1NCCc2cc(OC)c(OC)cc21	inactive; negative
CCCCOC(=O)COc1ccc(Cl)cc1Cl	inactive; negative
Cc1cc(C(C)(C)C)c(O)c(C(C)(C)C)c1	inactive; negative
CC(O)COc1ccccc1 (stereo unspecified)	inactive; negative
CCC(=O)C=CC1C(C)=CCCC1(C)C (stereo unspecified)	inactive; negative
CCC(CO)(CO)[N+](=O)[O-]	inactive; negative
CC(C)(c1cc(Br)c(O)c(Br)c1)c1cc(Br)c(O)c(Br)c1	inactive; negative
CCC(=O)O	inactive; negative
Nc1ncc([N+](=O)[O-])s1	active; positive

SMILES	outcome
O=CC(Cl)(Cl)Cl	active; weakly positive
CC(=O)NBr	inactive; negative
O=C(O)CNC(=O)c1ccc([N+](=O)[O-])cc1	active; positive
O=c1cc(-c2ccccc2)oc2ccc3ccccc3c12	inactive; negative
N#Cc1c(Cl)c(Cl)c(Cl)c(C#N)c1Cl	inactive; negative
C1COCCN1	inactive; negative
Cc1cccc(C#N)c1	inactive; negative
O=C(O)c1ccc2c(c1)C(=O)OC2=O	inactive; negative
Cc1ccc([N+](=O)[O-])c(C(=O)O)c1	active; positive
ClC(Cl)(Cl)c1ccccc1	active; positive
CC(=O)CC(C)C	inactive; negative
CC#N	inactive; negative
Nc1c2c(nc3ccccc13)CCCC2	active; positive
COC(=O)c1ccc(C)cc1	inactive; negative
Nc1ccn([C@@H]2CS[C@H](CO)O2)c(=O)n1	inactive; negative
Clc1ccc(C(c2ccc(Cl)cc2)C(Cl)Cl)cc1	inactive; negative
C=CCOC(=O)c1ccccc1N	inactive; negative
O=C1C=CCCC1	inactive; negative
CC(=O)O[C@H](CC(=O)[O-])C[N+](C)(C)C	inactive; negative
C=CC(=C)C	inactive; negative
NC(Cc1ccc(F)cc1)C(=O)O (stereo unspecified)	inactive; negative
CC(=O)C=Cc1ccccc1	active; positive

SMILES	outcome
O=C(Nc1ccccc1SSc1ccccc1NC(=O)c1ccccc1)c1ccccc1	inactive; negative
CCOC(=O)CC(SP(=S)(OC)OC)C(=O)OCC (stereo unspecified)	inactive; negative
O=[N+]([O-])c1c(Cl)cc(Cl)cc1Cl	inactive; negative
Cc1ccc(Cl)cc1	inactive; negative
C=CCCC#N	inactive; negative
CCCCN1CCCCC1C(=O)Nc1c(C)cccc1C (stereo unspecified)	inactive; negative
O=Cc1ccc(Cl)c(Cl)c1	inactive; negative
[O-][N+](=Nc1ccc(Cl)c(Cl)c1)c1ccc(Cl)c(Cl)c1	inactive; negative
C(=NC1CCCCC1)=NC1CCCCC1	inactive; negative
NC(=O)NC(N)=O	active; positive
Clc1cc(Cl)c(Cl)c(Cl)c1Cl	inactive; negative
NC(=O)NO	inactive; negative
CCC[N+](CCC)(CCC)CCC	active; weakly positive
NCCNc1cccc2ccccc12	active; positive
C=C(C)C(=O)OCC(C)C	inactive; negative
COc1c(Cl)c(Cl)c(Cl)c(Cl)c1Cl	active; positive
CCN(CC)C(=S)S[Te](SC(=S)N(CC)CC)(SC(=S)N(CC)CC)SC(=S)N(CC)CC	inactive; negative
CC(C)(OO)c1ccccc1	active; positive
OCCN1CC1	active; positive
CN(C)c1ccc(Cc2ccc(N(C)C)cc2)cc1	active; positive
CCOC(C)(C)C	inactive; negative
O=[N+]([O-])c1ccc(Cl)cc1	active; positive

SMILES	outcome
N#C/C=C/C#N	inactive; negative
COC(=O)c1ccc(C(=O)OC)cc1	inactive; negative
C[CH2][Hg][S]c1ccccc1C(=O)O	inactive; negative
CC(C)NC(C)C	inactive; negative
C=CC(=O)NCNC(=O)C=C	active; positive
OCC(CBr)(CBr)CBr	active; positive
C(=C/c1ccccc1)/c1ccccc1	inactive; negative
Cc1cscn1	inactive; negative
Nc1ccc([As](=O)(O)O)cc1	inactive; negative
COc1ccc(CN(CCN(C)C)c2ccccn2)cc1	inactive; negative
C=Cc1ccccc1	inactive; negative
CCNNCC	inactive; negative
C=CC(C)=O	active; positive
CCCCNC(=O)n1c(NC(=O)OC)nc2ccccc21	inactive; negative
O=c1ccc(O)n[nH]1	active; weakly positive
O=C1N(CO)C(O)C(O)N1CO (stereo unspecified)	active; positive
Cc1cc(N)ccc1-c1ccc(N)cc1C	active; positive
ClCC(Br)CBr (stereo unspecified)	active; positive
